Tests used:
YAP-TEAD interaction = biological target: T1, YAP-TEAD interaction (Homo sapiens, UniProt P28347); test: Cell-based TEAD-GAL4 transactivation assay (luciferase reporter); settings: HEK293 cells transfected with TEAD1-Gal4, YAP mutant (S127A, S397A) and luciferase reporter, compounds 0.1 μM to 30 μM; for Emax: HEK293, 24 h, read-out: TEAD-GAL4 Transactivation activity Max Act
T1 construct: expressed in transfected cells; host or cells: HEK293 GripTite 293 MSR (Invitrogen R795-07)
In short: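 HEK293 cells transiently transfected with Gal4-DBD–full-length human TEAD1, full-length YAP S127A/S397A (YAP/TEAD ratio 10) and a 5×GAL4-RE TK-luciferase reporter. Six hours later, compounds added semi-log from 0.1 to 30 μM (DMSO 0.5% control) for 24 h. Luciferase read; IC50 from 3-parameter fit.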

T1 sequence (P28347 whole entry, the tested form may be a part): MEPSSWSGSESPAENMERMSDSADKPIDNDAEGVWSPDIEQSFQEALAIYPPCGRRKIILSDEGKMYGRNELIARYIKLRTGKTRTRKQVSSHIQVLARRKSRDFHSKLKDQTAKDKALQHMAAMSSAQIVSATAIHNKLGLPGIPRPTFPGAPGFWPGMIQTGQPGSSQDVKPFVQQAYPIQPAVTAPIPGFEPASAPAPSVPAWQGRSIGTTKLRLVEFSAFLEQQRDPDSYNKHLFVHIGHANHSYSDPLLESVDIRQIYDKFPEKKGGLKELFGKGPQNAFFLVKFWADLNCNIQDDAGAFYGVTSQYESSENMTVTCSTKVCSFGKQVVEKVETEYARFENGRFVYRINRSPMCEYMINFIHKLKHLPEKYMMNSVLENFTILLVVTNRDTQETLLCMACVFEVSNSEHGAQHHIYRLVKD

| melting point [°C] | Emax (YAP-TEAD interaction) [%] | IC50 (YAP-TEAD interaction; 24 h) [nM] | TEAD-GAL4 Transactivation activity Max Act (YAP-TEAD interaction; 24 h) [%] | SMILES |
| --- | --- | --- | --- | --- |
| 252 to 264 | 85 | 130 | – | COCCN(/N=C/c1ccc2c(c1)COB2O)c1ncnc2nc(SC)sc12.Cl [Ex95, N-[(E)-(1-hydroxy-3H-2,1-benzoxaborol-5-yl)methyleneamino]-N-(2-methoxyethyl)-2-methylsulfanyl-thiazolo[4,5-d]pyrimidin-7-amine, hydrochloride] |
| 248 to 264 | 94 | 230 | – | CCN(/N=C/c1ccc2c(c1)COB2O)c1ncnc2nc(SC)sc12.Cl [Ex83, N-ethyl-N-[(E)-(1-hydroxy-3H-2,1-benzoxaborol-5-yl)methyleneamino]-2-methylsulfanyl-thiazolo[4,5-d]pyrimidin-7-amine hydrochloride] |
| 227 | 76 | 5190 | – | COCCN(/N=C/c1ccc2c(c1)COB2O)C1=NS(=O)(=O)c2ccccc21 [Ex 24, N-[(E)-(1-hydroxy-3H-2,1-benzoxaborol-5-yl)methyleneamino]-N-(2-methoxyethyl)-1,1-dioxo-1,2-benzothiazol-3-amine] |
| 231 | 82 | 320 | – | Cc1csc2c(N(C)/N=C/c3ccc4c(c3)COB4O)ncnc12 [Ex77, N-[(E)-(1-hydroxy-3H-2,1-benzoxaborol-5-yl)methyleneamino]-N,7-dimethyl-thieno[3,2-d]pyrimidin-4-amine] |
| 180 to 200 | 86 | 1310 | – | CN(/N=C/c1ccc2c(c1)COB2O)c1ncnc2c1[nH]c(=O)n2C [Ex98, 6-[[(E)-(1-hydroxy-3H-2,1-benzoxaborol-5-yl)methyleneamino]-methyl-amino]-9-methyl-7H-purin-8-one] |
| 247 to 253 | 90 | 1010 | – | CCN(/N=C/c1ccc2c(c1)COB2O)c1ncnc2nc(N(C)C)sc12 [Ex79, N7-ethyl-N7-[(E)-(1-hydroxy-3H-2,1-benzoxaborol-5-yl)methyleneamino]-N2,N2-dimethyl-thiazolo[4,5-d]pyrimidine-2,7-diamine] |
| 182 | 90 | 4130 | – | Cc1ccc2c(c1)S(=O)(=O)N=C2N(CC(C)C)/N=C/c1ccc2c(c1)COB2O [Ex 31, N-[(E)-(1-hydroxy-3H-2,1-benzoxaborol-5-yl)methyleneamino]-N-isobutyl-6-methyl-1,1-dioxo-1,2-benzothiazol-3-amine] |
| – | 63 | 690 | – | CCN(/N=C/c1ccc(B(O)O)c(OC)c1)c1ncnc2ccsc12 [Ex63, [4-[(E)-[ethyl(thieno[3,2-d]pyrimidin-4-yl)hydrazono]methyl]-2-methoxy-phenyl]boronic acid] |
| – | 81 | 510 | – | CCN(/N=C/c1ccc2c(c1)COB2O)c1ncnc2ccsc12 [Ex 38, N-ethyl-N-[(E)-(1-hydroxy-3H-2,1-benzoxaborol-5-yl)methyleneamino]-thieno[3,2-d]pyrimidin-4-amine] |
| – | 79 | 1760 | – | CN(/N=C/c1ccc2c(c1)COB2O)c1ncnc2c(N3CCOCC3)csc12 [Ex104, N-[(E)-(1-hydroxy-3H-2,1-benzoxaborol-5-yl)methyleneamino]-N-methyl-7-morpholino-thieno[3,2-d]pyrimidin-4-amine] |
| – | 78 | 4360 | – | COc1cc(/C=N/N(CC(C)C)C2=NS(=O)(=O)c3cc(C#N)ccc32)ccc1B(O)O [Ex 10, [4-[(E)-[(6-cyano-1,1-dioxo-1,2-benzothiazol-3-yl)-isobutyl-hydrazono]-methyl]-2-methoxy-phenyl]boronic acid] |
| – | 79 | 710 | – | CN(/N=C/c1ccc2c(c1)COB2O)c1ncnc2c(C3CC3)csc12 [Ex103, 7-cyclopropyl-N-[(E)-(1-hydroxy-3H-2,1-benzoxaborol-5-yl)methyleneamino]-N-methyl-thieno[3,2-d]pyrimidin-4-amine] |
| – | 79 | 1740 | – | CCN(/N=C/c1ccc2c(c1)COB2O)c1ncnc2c(C(=O)NC3COC3)csc12 [Ex115, 4-[ethyl-[(E)-(1-hydroxy-3H-2,1-benzoxaborol-5-yl)methyleneamino]amino]-N-(oxetan-3-yl)thieno[3,2-d]pyrimidine-7-carboxamide] |
| – | 83 | 570 | – | CCN(/N=C/c1ccc2c(c1)COB2O)c1ncnc2c1cnn2C [Ex 41, N-ethyl-N-[(E)-(1-hydroxy-3H-2,1-benzoxaborol-5-yl)methyleneamino]-1-methyl-pyrazolo[3,4-d]pyrimidin-4-amine] |
| – | 86 | 1590 | – | COc1cccc2c(N(CC(C)C)/N=C/c3ccc4c(c3)COB4O)ncnc12 [Ex 32, N-[(E)-(1-hydroxy-3H-2,1-benzoxaborol-5-yl)methyleneamino]-N-isobutyl-8-methoxy-quinazolin-4-amine] |
| – | 78 | 3410 | – | CN(/N=C/c1ccc2c(c1)COB2O)C1=NS(=O)(=O)c2ccccc21 [Ex 26, N-[(E)-(1-hydroxy-3H-2,1-benzoxaborol-5-yl)methyleneamino]-N-methyl-1,1-dioxo-1,2-benzothiazol-3-amine] |

| melting point [°C] | Emax (YAP-TEAD interaction) [%] | IC50 (YAP-TEAD interaction; 24 h) [nM] | TEAD-GAL4 Transactivation activity Max Act (YAP-TEAD interaction; 24 h) [%] | SMILES |
| --- | --- | --- | --- | --- |
| – | 90 | 2750 | – | CC(C)CN(/N=C/c1ccc2c(c1)COB2O)C1=NS(=O)(=O)c2ccc(F)cc21 [Ex 28, 5-fluoro-N-[(E)-(1-hydroxy-3H-2,1-benzoxaborol-5-yl)methyleneamino]-N-isobutyl-1,1-dioxo-1,2-benzothiazol-3-amine] |
| – | 86 | 4000 | – | COc1cccc2c(N(C)/N=C/c3ccc4c(c3)COB4O)ncnc12 [Ex 33, N-[(E)-(1-hydroxy-3H-2,1-benzoxaborol-5-yl)methyleneamino]-8-methoxy-N-methyl-quinazolin-4-amine] |
| – | 80 | 720 | – | CC1CCC(c2ccc3c(c2)COB3O)=NN1c1ncnc2ccsc12 (stereo not drawn) [Ex121, 4-[6-(1-hydroxy-3H-2,1-benzoxaborol-5-yl)-3-methyl-4,5-dihydro-3H-pyridazin-2-yl]thieno[3,2-d]pyrimidine] |
| – | 81 | 1120 | – | CCN(/N=C/c1ccc2c(c1)COB2O)c1ncnc2c(OC)cccc12 [Ex 34, N-ethyl-N-[(E)-(1-hydroxy-3H-2,1-benzoxaborol-5-yl)methyleneamino]-8-methoxy-quinazolin-4-amine] |
| – | – | 3520 | 86 | COc1cc(C2=NN(c3ncnc4c(OC)cccc34)C(C)CC2)ccc1B(O)O (single isomer, unassigned; isomer 2) [Ex125, [2-methoxy-4-[2-(8-methoxyquinazolin-4-yl)-3-methyl-4,5-dihydro-3H-pyridazin-6-yl]phenyl]boronic acid (isomer 2)] |
| – | 78 | 920 | – | CCN(/N=C/c1ccc2c(c1)COB2O)c1ncnc2c1ccn2C [Ex 44, N-ethyl-N-[(E)-(1-hydroxy-3H-2,1-benzoxaborol-5-yl)methyleneamino]-7-methyl-pyrrolo[2,3-d]pyrimidin-4-amine] |
| – | 79 | 1870 | – | CCCNC(=O)c1csc2c(N(CC)/N=C/c3ccc4c(c3)COB4O)ncnc12 [Ex112, 4-[ethyl-[(E)-(1-hydroxy-3H-2,1-benzoxaborol-5-yl)methyleneamino]-amino]-N-propyl-thieno[3,2-d]pyrimidine-7-carboxamide] |
| – | 85 | 820 | – | CCN(/N=C/c1ccc2c(c1)COB2O)c1ncnc2cc(F)ccc12 [Ex89, N-ethyl-7-fluoro-N-[(E)-(1-hydroxy-3H-2,1-benzoxaborol-5-yl)-methyleneamino]quinazolin-4-amine] |
| – | 80 | 630 | – | CCN(/N=C/c1ccc2c(c1)COB2O)c1nc(C)nc2c(C)csc12 [Ex88, N-ethyl-N-[(E)-(1-hydroxy-3H-2,1-benzoxaborol-5-yl)methyleneamino]-2,7-dimethyl-thieno[3,2-d]pyrimidin-4-amine] |
| – | 85 | 690 | – | CCN(/N=C/c1ccc2c(c1)COB2O)c1ncnc2sccc12 [Ex 40, N-ethyl-N-[(E)-(1-hydroxy-3H-2,1-benzoxaborol-5-yl)methyleneamino]-thieno[2,3-d]pyrimidin-4-amine] |
| – | 85 | 1030 | – | CCCn1ccc2c(N(CC)/N=C/c3ccc4c(c3)COB4O)ncnc21 [Ex84, N-ethyl-N-[(E)-(1-hydroxy-3H-2,1-benzoxaborol-5-yl)methyleneamino]-7-propyl-pyrrolo[2,3-d]pyrimidin-4-amine] |
| – | 80 | 710 | – | Cc1csc2c(N(CC(C)C)/N=C/c3ccc4c(c3)COB4O)ncnc12 [Ex93, N-[(E)-(1-hydroxy-3H-2,1-benzoxaborol-5-yl)methyleneamino]-N-isobutyl-7-methyl-thieno[3,2-d]pyrimidin-4-amine] |
| – | 75 | 2220 | – | CCN(/N=C/c1ccc2c(c1)COB2O)c1ncnc2cn[nH]c12 [Ex78, N-ethyl-N-[(E)-(1-hydroxy-3H-2,1-benzoxaborol-5-yl)methyleneamino]-1H-pyrazolo[4,3-d]pyrimidin-7-amine] |
| – | 96 | 200 | – | CSc1nc2ncnc(N3N=C(c4ccc5c(c4)COB5O)CCC3C)c2s1 (stereo not drawn) [Ex123, 7-[6-(1-hydroxy-3H-2,1-benzoxaborol-5-yl)-3-methyl-4,5-dihydro-3H-pyridazin-2-yl]-2-methylsulfanyl-thiazolo[4,5-d]pyrimidine] |
| – | 81 | 3240 | – | COc1cc(C2=NN(C3=NS(=O)(=O)c4ccccc43)CC(C)O2)ccc1B(O)O (stereo not drawn) [Ex 58, [4-[4-(1,1-dioxo-1,2-benzothiazol-3-yl)-6-methyl-5,6-dihydro-1,3,4-oxadiazin-2-yl]-2-methoxy-phenyl]boronic acid] |

— patent publication US11999758B2, “Inhibitors of the YAP/TAZ-TEAD interaction and their use in the treatment of cancer” (INVENTIVA, priority 2018, dated 2024)
